Results reported in the NIST ThermoML archive (doi:10.1021/je100864e).

Assay: osmotic coefficient (dimensionless); mn = molality of the nth substance listed, in mol/kg
Conditions: 298.15 K, Liquid, isopiestic method

O=C([O-])CC(O)(CC(=O)[O-])C(=O)O.[Na+].[Na+] [disodium hydrogen citrate] + O
Conditions	osmotic coefficient
m1 = 0.2817	0.806
m1 = 0.2939	0.792
m1 = 0.3096	0.77
m1 = 0.3227	0.773
m1 = 0.3856	0.759
m1 = 0.4011	0.753
m1 = 0.4258	0.75
m1 = 0.4592	0.724
m1 = 0.4761	0.726
m1 = 0.4822	0.728
m1 = 0.5501	0.714
m1 = 0.6381	0.71
m1 = 0.6827	0.706
m1 = 0.6915	0.705
m1 = 0.6951	0.707
m1 = 0.6997	0.708
m1 = 1.018	0.689
m1 = 1.09	0.688
m1 = 1.107	0.682
m1 = 1.246	0.688
m1 = 1.329	0.682
m1 = 1.579	0.694
m1 = 1.635	0.694
m1 = 1.659	0.69
m1 = 1.731	0.69
m1 = 1.788	0.701
m1 = 1.928	0.702
m1 = 1.934	0.693
m1 = 2	0.704
m1 = 2.327	0.711
m1 = 2.393	0.712
m1 = 2.439	0.711

O=C([O-])CC(O)(CC(=O)O)C(=O)O.[Na+] [sodium dihydrogen citrate] + O
Conditions	osmotic coefficient
m1 = 0.3252	0.849
m1 = 0.4619	0.829
m1 = 0.5944	0.82
m1 = 0.7158	0.803
m1 = 0.7377	0.81
m1 = 0.7458	0.805
m1 = 0.7565	0.801
m1 = 0.7666	0.798
m1 = 0.78	0.81
m1 = 0.9089	0.801
m1 = 1.096	0.813
